Results on eight compounds are retold here after patent US20220169628A1 (University of Florida Research Foundation, Incorporated, priority 2019, published 2022).

Where two headings read alike, the source gives them in different places. Bounds are passed on as bounds.

The test system of one test is MOLT-4 cells. Put plainly: Cell viability assay, MTS, 48 h, MOLT-4. In kind it is cell-based. To be noted: 48 hours, read-out: IC50 (48 hours) MOLT-4. As for the experimental part:
(§1) Acute lymphoblastic leukemia cells (MOLT-4 and RS4; 11) or small cell lung cancer (NCI-H146 or simply H146) were incubated with increasing concentrations of Bcl-xL degraders for 48 h. Cell viability was measured by tetrazolium-based MTS assay.

A further test has as its system RS4;11 cells. Put plainly: Cell viability assay, MTS, 48 h, RS4;11. The format is cell-based. The conditions noted are these: 48 hours, read-out: IC50 (48 hours) RS4;11. Here is the method:
as §1

With `Cc1ncsc1-c1ccc([C@H](C)NC(=O)[C@@H]2C[C@@H](O)CN2C(=O)[C@@H](NC(=O)CCCCCCC(=O)N2CCN(C(=O)C3(C)CCC(c4ccc(Cl)cc4)=C(CN4CCN(c5ccc(C(=O)NS(=O)(=O)c6ccc(N[C@H](CCN7CCOCC7)CSc7ccccc7)c(S(=O)(=O)C(F)(F)F)c6)cc5)CC4)C3)CC2)C(C)(C)C)cc1` (stereo partly drawn) [compound 65, (2S,4R)-1-((2S)-2-(8-(4-(4′-chloro-4-methyl-6-((4-(4-(((4-(((R)-4-morpholino-1-(phenylthio)butan-2-yl)amino)-3-((trifluoromethyl)sulfonyl)phenyl)sulfonyl)carbamoyl)phenyl)piperazin-1-yl)methyl)-2,3,4,5-tetrahydro-[1,1′-biphenyl]-4-carbonyl)piperazin-1-yl)-8-oxooctanamido)-3,3-dimethylbutanoyl)-4-hydroxy-N—((S)-1-(4-(4-methylthiazol-5-yl)phenyl)ethyl)pyrrolidine-2-carboxamide], the concentration for half-maximal inhibition (IC50) in the test with MOLT-4 cells (Homo sapiens, MOLT-4, 48 h) was under 50 nM; in the test with RS4;11 cells (Homo sapiens, RS4-11, 48 h) it was under 50 nM.
Take `Cc1ncsc1-c1ccc([C@H](C)NC(=O)[C@@H]2C[C@@H](O)CN2C(=O)[C@@H](NC(=O)CCCCCC(=O)N2CCN(CC3(C)CCC(c4ccc(Cl)cc4)=C(CN4CCN(c5ccc(C(=O)NS(=O)(=O)c6ccc(N[C@H](CCN7CCOCC7)CSc7ccccc7)c(S(=O)(=O)C(F)(F)F)c6)cc5)CC4)C3)CC2)C(C)(C)C)cc1` (stereo partly drawn) [degrader #16, (2S,4R)-1-((2S)-2-(7-(4-((4′-chloro-4-methyl-6-((4-(4-(((4-(((R)-4-morpholino-1-(phenylthio)butan-2-yl)amino)-3-((trifluoromethyl)sulfonyl)phenyl)sulfonyl)carbamoyl)phenyl)piperazin-1-yl)methyl)-2,3,4,5-tetrahydro-[1,1′-biphenyl]-4-yl)methyl)piperazin-1-yl)-7-oxoheptanamido)-3,3-dimethylbutanoyl)-4-hydroxy-N—((S)-1-(4-(4-methylthiazol-5-yl)phenyl)ethyl)pyrrolidine-2-carboxamide]: the IC50 in the test on MOLT-4 cells (Homo sapiens, MOLT-4, 48 h) is under 50 nM; with RS4;11 cells (Homo sapiens, RS4-11, 48 h), under 50 nM.
Take `Cc1ncsc1-c1ccc([C@H](C)NC(=O)[C@@H]2C[C@@H](O)CN2C(=O)[C@@H](NC(=O)CCCCCCCCC(=O)N2CCN(CC3(C)CCC(c4ccc(Cl)cc4)=C(CN4CCN(c5ccc(C(=O)NS(=O)(=O)c6ccc(N[C@H](CCN7CCOCC7)CSc7ccccc7)c(S(=O)(=O)C(F)(F)F)c6)cc5)CC4)C3)CC2)C(C)(C)C)cc1` (stereo partly drawn) [degrader #19, (2S,4R)-1-((2S)-2-(10-(4-((4′-chloro-4-methyl-6-((4-(4-(((4-(((R)-4-morpholino-1-(phenylthio)butan-2-yl)amino)-3-((trifluoromethyl)sulfonyl)phenyl)sulfonyl)carbamoyl)phenyl)piperazin-1-yl)methyl)-2,3,4,5-tetrahydro-[1,1′-biphenyl]-4-yl)methyl)piperazin-1-yl)-10-oxodecanamido)-3,3-dimethylbutanoyl)-4-hydroxy-N—((S)-1-(4-(4-methylthiazol-5-yl)phenyl)ethyl)pyrrolidine-2-carboxamide]: the IC50 in the test with MOLT-4 cells (Homo sapiens, MOLT-4, 48 h) lay in the range of 50 to 150 nM; in the test on RS4;11 cells (Homo sapiens, RS4-11, 48 h), 50 to 150 nM.
As for `CC1(CNC(=O)CCCCCNc2cccc3c2C(=O)N(C2CCC(=O)NC2=O)C3=O)CCC(c2ccc(Cl)cc2)=C(CN2CCN(c3ccc(C(=O)NS(=O)(=O)c4ccc(N[C@H](CCN5CCOCC5)CSc5ccccc5)c(S(=O)(=O)C(F)(F)F)c4)cc3)CC2)C1` (stereo partly drawn) [compound 71, 4-(4-((4′-chloro-4-((6-((2-(2,6-dioxopiperidin-3-yl)-1,3-dioxoisoindolin-4-yl)amino)hexanamido)methyl)-4-methyl-3,4,5,6-tetrahydro-[1,1′-biphenyl]-2-yl)methyl)piperazin-1-yl)-N-((4-(((R)-4-morpholino-1-(phenylthio)butan-2-yl)amino)-3-((trifluoromethyl)sulfonyl)phenyl)sulfonyl)benzamide], the 50% inhibitory concentration (IC50) is under 50 nM with MOLT-4 cells (Homo sapiens, MOLT-4, 48 h) and under 50 nM with RS4;11 cells (Homo sapiens, RS4-11, 48 h).
Take “(S)-13-((2S,4R)-4-hydroxy-2-(((S)-1-(4-(4-methylthiazol-5-yl)phenyl)ethyl)carbamoyl)pyrrolidine-1-carbonyl)-14,14-dimethyl-11-oxo-3,6,9-trioxa-12-azapentadecyl 4-(4-chlorophenyl)-5-((4-(4-(((4-(((R)-4-morpholino-1-(phenylthio)butan-2-yl)amino)-3-((trifluoromethyl)sulfonyl)phenyl)sulfonyl)carbamoyl)phenyl)piperazin-1-yl)methyl)-3,6-dihydropyridine-1(2H)-carboxylate [Example 8]”: the IC50 in the test on MOLT-4 cells and with RS4;11 cells was 150 to 500 nM throughout.
For the compound `Cc1ncsc1-c1ccc([C@H](C)NC(=O)[C@@H]2C[C@@H](O)CN2C(=O)[C@@H](NC(=O)CCCCCC(=O)N2CCN(C(=O)C3(C)CCC(c4ccc(Cl)cc4)=C(CN4CCN(c5ccc(C(=O)NS(=O)(=O)c6ccc(N[C@H](CCN7CCOCC7)CSc7ccccc7)c(S(=O)(=O)C(F)(F)F)c6)cc5)CC4)C3)CC2)C(C)(C)C)cc1` (stereo partly drawn) [compound 64, (2S,4R)-1-((2S)-2-(7-(4-(4′-chloro-4-methyl-6-((4-(4-(((4-(((R)-4-morpholino-1-(phenylthio)butan-2-yl)amino)-3-((trifluoromethyl)sulfonyl)phenyl)sulfonyl)carbamoyl)phenyl)piperazin-1-yl)methyl)-2,3,4,5-tetrahydro-[1,1′-biphenyl]-4-carbonyl)piperazin-1-yl)-7-oxoheptanamido)-3,3-dimethylbutanoyl)-4-hydroxy-N—((S)-1-(4-(4-methylthiazol-5-yl)phenyl)ethyl)pyrrolidine-2-carboxamide], the half-inhibitory concentration (IC50) in the test on MOLT-4 cells (Homo sapiens, MOLT-4, 48 h) lay in the range of 50 to 150 nM; in the test on RS4;11 cells (Homo sapiens, RS4-11, 48 h), 50 to 150 nM.
As to “(2S,4R)-1-((S)-2-(7-(4-(4-chlorophenyl)-5-((4-(4-(((4-(((R)-4-morpholino-1-(phenylthio)butan-2-yl)amino)-3-((trifluoromethyl)sulfonyl)phenyl)sulfonyl)carbamoyl)phenyl)piperazin-1-yl)methyl)-3,6-dihydropyridin-1(2H)-yl)-7-oxoheptanamido)-3,3-dimethylbutanoyl)-4-hydroxy-N—((S)-1-(4-(4-methylthiazol-5-yl)phenyl)ethyl)pyrrolidine-2-carboxamide [Example 2]”, the half-maximal inhibitory concentration (IC50) with MOLT-4 cells and with RS4;11 cells was 150 to 500 nM each time.
In the case of “(2S,4R)-1-((S)-2-(8-(4-(4-chlorophenyl)-5-((4-(4-(((4-(((R)-4-morpholino-1-(phenylthio)butan-2-yl)amino)-3-((trifluoromethyl)sulfonyl)phenyl)sulfonyl)carbamoyl)phenyl)piperazin-1-yl)methyl)-3,6-dihydropyridin-1(2H)-yl)-8-oxooctanamido)-3,3-dimethylbutanoyl)-4-hydroxy-N—((S)-1-(4-(4-methylthiazol-5-yl)phenyl)ethyl)pyrrolidine-2-carboxamide [Example 3]”, the half-maximal inhibitory concentration (IC50) was 150 to 500 nM with MOLT-4 cells and 50 to 150 nM in the test on RS4;11 cells.
